US11207312B2, “Metallo-beta-lactamase inhibitors and methods of use thereof” (priority 2017, dated 2021)

Key:
[1] = system: P. aeruginosa MB9798 (efflux+, IMP-1 plasmid); settings: for MB9798 MITC95 P. aeruginosa uM Efflux WT: efflux + (MB9798) strain, imipenem at 2 μg/mL, in the presence of a class A, C, D serine β-lactamase inhibitor closely related to relebactam; for Efflux ratio: fold difference between efflux+ (MB9798) and efflux− (MB9799) strains
Method in brief: (§1)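 PAO1-derived isogenic pair (oprD+, inducible AmpC), efflux+ MB5919 or efflux− MB5890 parent, carrying an electroporated IMP-1 plasmid from a clinical isolate. Microbroth MIC with fixed imipenem and/or ceftazidime (usually CLSI breakpoint) plus fixed class A/C inhibitor; MBL inhibitor serially titrated, concentration restoring susceptibility recorded.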

[2] = system: Serratia marcescens expressing IMP-1 (CL5741); assay type: cell-based; settings: with imipenem 1 μg/ml; 95% inhibition of bacterial growth
Method in brief: (§2)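 Colonies from sheep-blood agar plates are resuspended in saline, then diluted 1:100 in 1.1× CAMHB. Bacteria receive imipenem (1 μg/ml) and test compound, then incubate 22–24 h at 35 °C. Potentiation is reported as MITC95 from absorbance.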

[3] = system: Klebsiella pneumoniae expressing VIM-1 (IHMA599644); assay type: cell-based; settings: with imipenem 1 μg/ml; 95% inhibition of bacterial growth
Method in brief: as §2

[4] = system: Escherichia coli expressing NDM-1 (CLB30016); assay type: cell-based; settings: with imipenem 1 μg/ml; 95% inhibition of bacterial growth
Method in brief: as §2

[5] = system: P. aeruginosa MB9799 (efflux-, IMP-1 plasmid); assay type: cell-based, Pseudomonas aeruginosa; settings: efflux − (MB9799) strain; imipenem at 2 μg/mL; in the presence of a class A, C, D serine β-lactamase inhibitor closely related to relebactam
Method in brief: as §1

[6] = target: VIM-2 (Escherichia coli, UniProt Q5U7L7); assay: biochemical; settings: CCF2-FA fluorescence assay; read-out: VIM2 IC50
[7] = target: NDM-1 (Klebsiella pneumoniae, UniProt C7C422); assay: biochemical; assay type: biochemical; settings: CCF2-FA fluorescence assay, 2 hours at 25° C.
Method in brief: (§3)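 Buffer 100 mM KH2PO4 pH 7, 0.005% Tween-20, 10 μM ZnSO4. NDM-1 1 pM, IMP-1 2 pM, VIM-1 30 pM final; CCF2-FA 1.25 μM. Cpd 20–0.00063 μM, 2 h, 25° C. Ex 405/Em 460 nm; IC50 via 4-parameter curve.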

[8] = target: IMP-1 (Serratia marcescens, UniProt P52699); assay: biochemical; settings: CCF2-FA fluorescence assay, 2 hours at 25° C.; read-out: IMP1 IC50
Method in brief: as §3

[9] = target: VIM-1 (Pseudomonas aeruginosa (strain ATCC 15692 / DSM 22644 / CIP 104116 / JCM 14847 / LMG 12228 / 1C / PRS 101 / PAO1), UniProt A0A0F7KYQ8); assay: biochemical; settings: CCF2-FA fluorescence assay, 2 hours at 25° C.; read-out: VIM1 IC50
Method in brief: as §3

NDM-1, sequence (C7C422 whole entry, looked up, species assumed): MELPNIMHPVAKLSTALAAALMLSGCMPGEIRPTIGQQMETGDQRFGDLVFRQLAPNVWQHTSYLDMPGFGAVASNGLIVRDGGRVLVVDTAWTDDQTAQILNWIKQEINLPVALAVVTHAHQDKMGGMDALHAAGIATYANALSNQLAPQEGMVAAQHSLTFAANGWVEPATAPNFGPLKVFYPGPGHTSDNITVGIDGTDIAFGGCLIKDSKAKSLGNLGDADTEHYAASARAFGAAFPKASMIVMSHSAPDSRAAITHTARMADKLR
IMP-1, sequence (P52699 whole entry, looked up, species assumed): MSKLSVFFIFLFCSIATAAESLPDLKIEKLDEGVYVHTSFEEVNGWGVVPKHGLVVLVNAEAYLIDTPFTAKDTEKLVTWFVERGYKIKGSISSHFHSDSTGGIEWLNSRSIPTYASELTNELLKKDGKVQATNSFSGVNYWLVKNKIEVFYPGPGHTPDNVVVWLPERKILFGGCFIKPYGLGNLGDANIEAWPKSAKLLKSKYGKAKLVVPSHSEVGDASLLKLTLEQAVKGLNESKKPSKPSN

| Compound | MB9798 MITC95 P. aeruginosa uM Efflux WT [1] | Efflux ratio [1] | CL5741 S. marcescens MITC95 IMP [2] | IHMA599644 K. pneumoniae MITC95 VIM [3] | CLB30016 E. coli MITC95 NDM [4] | MB9799 MITC95 P. aeruginosa uM Efflux Mutant [5] | IC50 [6] | IC50 [7] | IC50 [8] | IC50 [9] |
| --- | --- | --- | --- | --- | --- | --- | --- | --- | --- | --- |
| C[C@@H](CN)NS(=O)(=O)c1ccc(N2CCC(O)(CN)CC2)c(-c2nn[nH]n2)c1S(N)(=O)=O [Example 18, (S)-4-(4-(aminomethyl)-4-hydroxypiperidin-1-yl)-N1-(1-aminopropan-2-yl)-3-(2H-tetrazol-5-yl)benzene-1,2-disulfonamide] | 0.78 µM | 1.00 | 0.78 µM | 1.56 µM | 0.78 µM | 0.78 µM | 4.8 nM | 0.43 nM | 1.48 nM | 0.65 nM |
| C[C@H](CN)NS(=O)(=O)c1ccc(N2CCC(CN)CC2)c(-c2nnn[nH]2)c1S(N)(=O)=O [Example 36, (R)-4-(4-(aminomethyl)piperidin-1-yl)-N1-(1-aminopropan-2-yl)-3-(1H-tetrazol-5-yl)benzene-1,2-disulfonamide] | 0.91 µM | 1.40 | 1.30 µM | 1.30 µM | 0.65 µM | 0.65 µM | 2.6 nM | 0.45 nM | 1.84 nM | 0.1 nM |
| NS(=O)(=O)c1c(S(=O)(=O)N[C@@H]2CCNC2)ccc(NCCN2CCOCC2)c1-c1nnn[nH]1 [Example 64, 4-[(2-morpholin-4-ylethyl)amino]-N1-[(3R)-pyrrolidin-3-yl]-3-(1H-tetrazol-5-yl)benzene-1,2-disulfonamide] | 25.00 µM | 15.99 | 1.56 µM | 6.25 µM | 1.56 µM | 1.56 µM | 8.19 nM | 5.51 nM | 3.26 nM | 1.62 nM |
| NCC1CCN(c2ccc(S(=O)(=O)N[C@@H]3CCNC3)c(S(N)(=O)=O)c2-c2nnn[nH]2)CC1 [Example 77, 4-[4-(aminomethyl)piperidin-1-yl]-N1-[(3R)-pyrrolidin-3-yl]-3-(1H-tetrazol-5-yl)benzene-1,2-disulfonamide] | 0.78 µM | 2.00 | 0.78 µM | 0.78 µM | 0.78 µM | 0.39 µM | 1.8 nM | 0.53 nM | 1.83 nM | 0.11 nM |
| CN(CCO)CCN(C)c1ccc(S(=O)(=O)NC[C@H](O)CN)c(S(N)(=O)=O)c1-c1nn[nH]n1 [Example 136, (R)—N1-(3-amino-2-hydroxypropyl)-4-((2-((2-hydroxyethyl)(methyl)amino)ethyl)(methyl)amino)-3-(2H-tetrazol-5-yl)benzene-1,2-disulfonamide] | 50.00 µM | 4.00 | 12.50 µM | 1.56 µM | 3.13 µM | 12.50 µM | 27.4 nM | 200 nM | 200 nM | 14.2 nM |
| NC[C@@H](O)CNS(=O)(=O)c1ccc(N2CCC(N)CC2)c(-c2nn[nH]n2)c1S(N)(=O)=O [Example 194, (R)-N1-(3-amino-2-hydroxypropyl)-4-(4-aminopiperidin-1-yl)-3-(2H-tetrazol-5-yl)benzene-1,2-disulfonamide] | 0.78 µM | 1.00 | 0.20 µM | 0.78 µM | 0.39 µM | 0.78 µM | 14.9 nM | 26.5 nM | 16 nM | 0.17 nM |
